In paper PMC12274840 (The Journal of Biological Chemistry, 2025):
In brackets after ≈: the same amount, converted by molar mass. Where two headings read alike, the source gives them in different places.

Key:
[1] = tested on: E. coli KA797 cells carrying pUK21 with NmcA (pelB/Sec); assay: microbe, parasite or virus in culture; format: cell-based; details: Escherichia coli, antibiotic alone
[2] = tested on: E. coli KA797 cells carrying pUK21 with BlaC WT (Tat); assay: microbe, parasite or virus in culture; format: cell-based; details: Escherichia coli, antibiotic alone
[3] = tested on: E. coli KA797 cells carrying BlaC position 105 library; format: cell-based, Escherichia coli; details: ceftriaxone; for Fi CEF AVG: average of replicates; for Fi CEF 1: replicate 1
[4] = tested on: E. coli KA797 cells carrying NmcA position 105 library; format: cell-based
[5] = tested on: E. coli KA797 cells carrying pUK21 vector without the β-lactamase gene; assay: microbe, parasite or virus in culture; format: cell-based; details: Escherichia coli
[6] = tested on: E. coli KA797 cells carrying pUK21 with CTX-M-14 WT (Tat); assay: microbe, parasite or virus in culture; format: cell-based; details: Escherichia coli, antibiotic alone
[7] = tested on: E. coli KA797 cells carrying CTX-M-14 position 105 library; format: cell-based
[8] = tested on: E. coli KA797 cells carrying TEM-1 position 105 library; format: cell-based; details: for Fi CEF AVG: average of replicates
[9] = tested on: CC1(C)S[C@@H]2[C@H](NC(=O)C(C(=O)O)c3ccccc3)C(=O)N2[C@H]1C(=O)O; assay: purified protein, by the assay type; details: pH 6.4; 25.0 °C
[10] = tested on: CC1(C)S[C@@H]2[C@H](NC(=O)C(C(=O)O)c3ccccc3)C(=O)N2[C@H]1C(=O)O; assay: purified protein, by the assay type; details: pH 6.4; 25.0 °C; remark: listed apart in the source
[11] = tested on: O=C(Cc1cccs1)N[C@@H]1C(=O)N2C(C(=O)O)=C(/C=C/c3ccc([N+](=O)[O-])cc3[N+](=O)[O-])CS[C@H]12; assay: purified protein, by the assay type; details: pH 6.4; 25.0 °C
[12] = tested on: CC1(C)S[C@@H]2[C@H](NC(=O)[C@H](N)c3ccccc3)C(=O)N2[C@H]1C(=O)O; assay: purified protein, by the assay type; details: pH 6.4; 25.0 °C

CO/N=C(\C(=O)N[C@@H]1C(=O)N2C(C(=O)O)=C(CSc3nc(=O)c(=O)[nH]n3C)CS[C@H]12)c1csc(N)n1 [ceftriaxone]
MIC [1]: 0.2 µg/mL (≈ 0.361 µM) | MIC [2]: 0.2 µg/mL (≈ 0.361 µM) | Fi CEF AVG ([3]; AA 105 Arg): 0.035 | Fi CEF 1 ([3]; AA 105 Arg): 0.040 | Fi CEF 2 ([3]; AA 105 Arg, replicate 2): 0.029 | Fi CEF AVG ([3]; AA 105 Cys): 0.035 | Fi CEF 1 ([3]; AA 105 Cys): 0.020 | Fi CEF 2 ([3]; AA 105 Cys, replicate 2): 0.049 | Fi CEF 2 ([3]; AA 105 Gly, replicate 2): -0.00224 | Fi CEF AVG ([3]; AA 105 His): 0.032 | Fi CEF 1 ([3]; AA 105 His): 0.007 | Fi CEF 2 ([3]; AA 105 His, replicate 2): 0.057 | Fi CEF AVG ([3]; AA 105 Ile (WT)): 0.000 | Fi CEF 1 ([3]; AA 105 Ile (WT)): 0.000 | Fi CEF 2 ([3]; AA 105 Ile (WT), replicate 2): 0.000 | Fi CEF AVG ([3]; AA 105 Leu): 0.017 | Fi CEF 1 ([3]; AA 105 Leu): 0.023 | Fi CEF 2 ([3]; AA 105 Leu, replicate 2): 0.011 | Fi CEF AVG ([3]; AA 105 Lys): -0.009 | Fi CEF 2 ([3]; AA 105 Lys, replicate 2): -0.009 | Fi CEF AVG ([3]; AA 105 Met): 0.036 | Fi CEF 1 ([3]; AA 105 Met): 0.064 | Fi CEF 2 ([3]; AA 105 Met, replicate 2): 0.008 | Fi CEF AVG ([3]; AA 105 Phe): 0.008 | Fi CEF 1 ([3]; AA 105 Phe): -0.000834 | Fi CEF 2 ([3]; AA 105 Phe, replicate 2): 0.017 | Fi CEF AVG ([3]; AA 105 Ser): -0.011 | Fi CEF 1 ([3]; AA 105 Ser): -0.00266 | Fi CEF AVG ([3]; AA 105 Trp): 0.038 | Fi CEF 1 ([3]; AA 105 Trp): 0.042 | Fi CEF 2 ([3]; AA 105 Trp, replicate 2): 0.034 | Fi CEF 1 ([3]; AA 105 Val): 0.004 | WT abs Fi 2 ([3]; WT (Ile 105) absolute fitness, replicate 2): -0.008 | Fi AVG (average fitness of replicates) ([4]; NmcA AA 105 Asp): 0.078 | Fi AVG (average fitness of replicates) ([4]; NmcA AA 105 Cys): 0.046 | Fi AVG (average fitness of replicates) ([4]; NmcA AA 105 Glu): 0.057 | Fi AVG (average fitness of replicates) ([4]; NmcA AA 105 Lys): 0.077 | Fi AVG (average fitness of replicates) ([4]; NmcA AA 105 Phe): 0.046 | Fi AVG (average fitness of replicates) ([4]; NmcA AA 105 Pro): 0.055 | Fi AVG (average fitness of replicates) ([4]; NmcA AA 105 Trp): 0.226 | Significance of average fitness ([4]; NmcA AA 105 Trp): + | WT abs Fi 1 (absolute fitness) ([4]; NmcA WT, replicate 1): 0.029 | WT abs Fi 2 (absolute fitness) ([4]; NmcA WT, replicate 2): -0.00378 | WT abs Fi 3 (absolute fitness) ([4]; NmcA WT, replicate 3): -0.101 | MIC [5]: 0.1 µg/mL (≈ 0.18 µM) | MIC [6]: 1600 µg/mL (≈ 2890 µM) | Significance of average fitness ([7]; CTX-M-14 AA 105 Ala): - | Significance of average fitness ([7]; CTX-M-14 AA 105 Arg): - | Significance of average fitness ([7]; CTX-M-14 AA 105 Asn): - | Significance of average fitness ([7]; CTX-M-14 AA 105 Asp): - | Significance of average fitness ([7]; CTX-M-14 AA 105 Cys): - | Significance of average fitness ([7]; CTX-M-14 AA 105 Gln): - | Significance of average fitness ([7]; CTX-M-14 AA 105 Glu): - | Significance of average fitness ([7]; CTX-M-14 AA 105 Gly): - | Significance of average fitness ([7]; CTX-M-14 AA 105 His): - | Significance of average fitness ([7]; CTX-M-14 AA 105 Ile): - | Significance of average fitness ([7]; CTX-M-14 AA 105 Leu): - | Significance of average fitness ([7]; CTX-M-14 AA 105 Lys): - | Significance of average fitness ([7]; CTX-M-14 AA 105 Met): - | Significance of average fitness ([7]; CTX-M-14 AA 105 Phe): - | Significance of average fitness ([7]; CTX-M-14 AA 105 Pro): - | Significance of average fitness ([7]; CTX-M-14 AA 105 Ser): - | Significance of average fitness ([7]; CTX-M-14 AA 105 Thr): - | Significance of average fitness ([7]; CTX-M-14 AA 105 Trp): + | Significance of average fitness ([7]; CTX-M-14 AA 105 Val): - | WT abs Fi 1 (absolute fitness of wild type, Replicate 1) ([7]; CTX-M-14 WT (Tyr 105)): 0.241 | WT abs Fi 2 (absolute fitness of wild type, Replicate 2) ([7]; CTX-M-14 WT (Tyr 105)): 0.256 | Fi CEF 2 ([8]; AA 105 Ala, replicate 2): -0.112 | Fi CEF 3 ([8]; AA 105 Ala, replicate 3): 0.013 | Fi CEF 2 ([8]; AA 105 Asn, replicate 2): -0.107 | Fi CEF 3 ([8]; AA 105 Asn, replicate 3): -0.034 | Fi CEF 1 ([8]; AA 105 Asp, replicate 1): 0.596 | Fi CEF AVG ([8]; AA 105 Cys): 0.087 | Fi CEF 1 ([8]; AA 105 Cys, replicate 1): 0.906 | Fi CEF AVG ([8]; AA 105 Gln): 0.078 | Fi CEF 1 ([8]; AA 105 Gln, replicate 1): 0.356 | Fi CEF 2 ([8]; AA 105 Gln, replicate 2): -0.028 | Fi CEF 3 ([8]; AA 105 Gln, replicate 3): -0.095 | Fi CEF 1 ([8]; AA 105 Glu, replicate 1): 0.340 | Fi CEF 2 ([8]; AA 105 Glu, replicate 2): -0.099 | Fi CEF AVG ([8]; AA 105 Gly): 0.067 | Fi CEF 1 ([8]; AA 105 Gly, replicate 1): 0.338 | Fi CEF 2 ([8]; AA 105 Gly, replicate 2): -0.077 | Fi CEF 3 ([8]; AA 105 Gly, replicate 3): -0.061 | Fi CEF AVG ([8]; AA 105 Leu): 0.072 | Fi CEF 1 ([8]; AA 105 Leu, replicate 1): 0.332 | Fi CEF 2 ([8]; AA 105 Leu, replicate 2): 0.047 | Fi CEF AVG ([8]; AA 105 Lys): 0.057 | Fi CEF 3 ([8]; AA 105 Lys, replicate 3): 0.102 | Fi CEF AVG ([8]; AA 105 Phe): 0.182 | Fi CEF 2 ([8]; AA 105 Phe, replicate 2): 0.022 | Fi CEF 3 ([8]; AA 105 Phe, replicate 3): 0.240 | Fi CEF AVG ([8]; AA 105 Pro): 0.130 | Fi CEF 1 ([8]; AA 105 Pro, replicate 1): 0.375 | Fi CEF 2 ([8]; AA 105 Pro, replicate 2): -0.060 | Fi CEF 3 ([8]; AA 105 Pro, replicate 3): 0.074 | Fi CEF AVG ([8]; AA 105 Ser): 0.105 | Fi CEF 3 ([8]; AA 105 Ser, replicate 3): 0.208 | Fi CEF AVG ([8]; AA 105 Trp): 0.125 | Fi CEF 1 ([8]; AA 105 Trp, replicate 1): 0.969 | Fi CEF 2 ([8]; AA 105 Tyr, replicate 2): 0.000 | Fi CEF 3 ([8]; AA 105 Tyr, replicate 3): 0.000 | WT abs Fi 1 ([8]; absolute fitness of TEM-1 WT, CEF, replicate 1): -0.283 | WT abs Fi 2 ([8]; absolute fitness of TEM-1 WT, CEF, replicate 2): 0.276 | WT abs Fi 3 ([8]; absolute fitness of TEM-1 WT, CEF, replicate 3): 0.176

(Escherichia coli)
Km [9]: 10.0 ± 0.7 µM | kcat [9]: 92 ± 2 s⁻¹ | kcat/Km [9]: 9.15e+06 ± 660000 M⁻¹ s⁻¹ | Km [10]: 20 ± 2 µM | kcat [10]: 31 ± 2 s⁻¹ | kcat/Km [10]: 1.55e+06 ± 180000 M⁻¹ s⁻¹ | Km [11]: 79 ± 1 µM | kcat [11]: 576 ± 5 s⁻¹ | kcat/Km [11]: 7.31e+06 ± 80000 M⁻¹ s⁻¹ | Km [12]: 76 ± 2 µM | kcat [12]: 103 ± 1 s⁻¹ | kcat/Km [12]: 1.36e+06 ± 80000 M⁻¹ s⁻¹
